{"source": "patent US10195179B2", "about": "“Spiro-lactam NMDA receptor modulators and uses thereof” (Aptinyx Inc., priority 2016, dated 2019)", "key": {"NR2D": {"target": "NR2D (Homo sapiens, UniProt O15399)", "sequence (O15399 28-1336, species assumed, other chains not shown)": "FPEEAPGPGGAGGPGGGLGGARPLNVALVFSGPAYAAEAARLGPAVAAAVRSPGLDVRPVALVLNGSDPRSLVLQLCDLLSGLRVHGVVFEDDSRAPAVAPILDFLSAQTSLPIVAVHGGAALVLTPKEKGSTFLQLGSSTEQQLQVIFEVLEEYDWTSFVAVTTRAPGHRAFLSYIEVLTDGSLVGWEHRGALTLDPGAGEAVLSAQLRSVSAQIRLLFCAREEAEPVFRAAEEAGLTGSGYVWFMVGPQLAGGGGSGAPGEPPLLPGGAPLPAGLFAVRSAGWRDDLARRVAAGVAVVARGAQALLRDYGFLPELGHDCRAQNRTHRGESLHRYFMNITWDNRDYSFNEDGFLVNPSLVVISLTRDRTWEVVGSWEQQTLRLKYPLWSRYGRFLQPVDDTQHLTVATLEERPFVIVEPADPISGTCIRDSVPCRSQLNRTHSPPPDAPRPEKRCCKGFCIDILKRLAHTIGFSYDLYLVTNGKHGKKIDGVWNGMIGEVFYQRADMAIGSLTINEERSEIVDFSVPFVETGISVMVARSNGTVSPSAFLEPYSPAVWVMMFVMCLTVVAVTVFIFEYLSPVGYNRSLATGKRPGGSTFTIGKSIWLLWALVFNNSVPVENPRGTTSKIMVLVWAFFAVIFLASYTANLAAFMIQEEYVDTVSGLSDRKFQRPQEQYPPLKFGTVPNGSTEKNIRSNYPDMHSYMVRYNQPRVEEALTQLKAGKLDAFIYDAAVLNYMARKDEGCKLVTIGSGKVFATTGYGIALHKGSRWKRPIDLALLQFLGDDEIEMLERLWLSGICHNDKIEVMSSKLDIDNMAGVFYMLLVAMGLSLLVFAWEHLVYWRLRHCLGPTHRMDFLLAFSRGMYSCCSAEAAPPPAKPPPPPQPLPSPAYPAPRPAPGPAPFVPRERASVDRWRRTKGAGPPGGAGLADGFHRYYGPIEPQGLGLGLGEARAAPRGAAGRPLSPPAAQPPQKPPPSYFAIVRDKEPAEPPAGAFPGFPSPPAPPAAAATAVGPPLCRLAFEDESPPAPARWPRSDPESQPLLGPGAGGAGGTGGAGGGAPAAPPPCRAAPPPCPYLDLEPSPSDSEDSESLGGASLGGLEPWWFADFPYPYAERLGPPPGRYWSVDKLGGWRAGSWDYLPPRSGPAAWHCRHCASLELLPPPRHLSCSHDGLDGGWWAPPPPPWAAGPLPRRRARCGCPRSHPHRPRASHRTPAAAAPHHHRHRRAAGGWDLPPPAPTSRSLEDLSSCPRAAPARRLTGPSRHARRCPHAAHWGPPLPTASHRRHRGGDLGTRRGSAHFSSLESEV", "test": "Potentiation of [3H]MK-801 binding, wild-type NMDAR2D", "design": "species or system rat", "protocol": "(§1) Assays were conducted as described by Moskal et al., “GLYX-13: a monoclonal antibody-derived peptide that acts as an N-methyl-D-aspartate receptor modulator,” Neuropharmacology, 49, 1077-87, 2005. The potentiation of [^3H]MK-801 binding (5 nM; 22.5 Ci/mmol) to well washed rat cortical membranes (200 μg) was measured under non-equilibrium conditions (15 min @ 25° C.) in the presence of increasing concentrations of Compound AA or Compound BB.\n(§2) FIG. 2A depicts the potentiation of [^3H]MK-801 binding for wild-type NMDAR2 subtypes in the presence of Compound AA. FIG. 2B depicts the potentiation of [^3H]MK-801 binding for wild-type NMDAR2 subtypes in the presence of Compound BB. The following table depicts the results (P means potency and A means activity): […]"}, "[1]": {"test": "Plasma protein binding assay, rat", "assay_type": "in vitro ADME", "settings": "read-out: Plasma Protein binding (% Bound) Plasma rat (converted)", "protocol": "Bound drug concentration in the brain was also investigated, and plasma protein binding assays were conducted. The following table (% bound) indicates results for Compound AA and Compound BB."}, "rat": {"test_system": "rat", "test": "Positive emotional learning (PEL) test, 50-kHz USVs", "assay_type": "in vivo", "settings": "administered one hour prior to PEL testing", "protocol": "Experiments were conducted as described in Burgdorf et al., “The effect of selective breeding for differential rates of 50-kHz ultrasonic vocalizations on emotional behavior in rats,” Devel. Psychobiol., 51:34-46 (2009).\nThe PEL assay measures the acquisition of positive (hedonic) 50-kHz ultrasonic vocalizations (USVs) to a social stimulus, heterospecific rough and tumble play stimulation. Heterospecific rough-and-tumble play stimulation was administered by the experimenter's right hand. Animals received 3 min of heterospecific rough-and-tumble play that consisted of alternating 15 sec blocks of heterospecific play and 15 sec of no-stimulation. High frequency ultrasonic vocalizations (USVs) were recorded and analyzed by sonogram with Avasoft SASlab Pro (Germany) as previously described by Burgdorf et al., “Positive emotional learning is regulated in the medial prefrontal cortex by GluN2B-containing NMDA receptors,” Neuroscience, 192:515-523 (2011). Frequency modulated 50-kHz USVs that occurred during each of the no-stimulation periods were quantified to measure PEL. Animals were not habituated to play stimulation before testing. Positive emotional learning was measured during the conditioned stimulus (CS) trials preceding the tickle unconditioned stimulus (UCS) trials. […] Running speed for animals to self administer tickling at the end of the 3 min session was also measured."}, "[2]": {"test": "Bioavailability and CSF/brain/plasma exposure after PO administration", "assay_type": "in vivo, Sprague Dawley rats", "settings": "rat; for Kp: male, Sprague Dawley, 10 mg/kg PO", "protocol": "The bioavailablity of Compound BB was investigated following PO administration. CSF, brain and plasma samples were analyzed following dosing with compound BB (10 mg/kg). The following table indicates the bioavailablity and CSF/plasma and brain/plasma ratios.\nSprague Dawley rats were dosed intravenously with 2 mg/kg of Compound AA. A second group of Sprague Dawley rats was dosed per os with 10 mg/kg of compound AA. Plasma samples were drawn over a 24 h period and analyzed for Compound AA. FIG. 3A presents the mean plasma concentration-time profile of Compound AA following the single intraveneous (2 mg/kg) and oral (10 mg/kg) dose administration in male Sprague Dawley rats over the 24 hour period.\nIn another experiment. Sprague Dawley rats were dosed intravenously with 2 mg/kg of Compound BB. A second group of Sprague Dawley rats was dosed per os with 10 mg/kg of compound BB. Plasma samples were drawn over a 24 h period and analyzed for Compound BB. FIG. 3B presents the mean plasma concentration-time profile of Compound BB following the single intraveneous (2 mg/kg) and oral (10 mg/kg) dose administration in male Sprague Dawley rats over the 24 hour period.\nIn another experiment, Sprague Dawley rats were dosed per os with 10 mg/kg of Compound BB. Plasma, brain, and CSF samples were analyzed at various time points over a 24 hour period."}, "Plasma stability, rat": {"test": "Plasma stability, rat", "assay_type": "in vitro ADME", "protocol": "(§3) Plasma stability for Compound AA and Compound BB was investigated. The following table indicates the percent of Compound AA and Compound BB remaining after 60 minutes."}, "NR2C": {"target": "NR2C (Homo sapiens, UniProt Q14957)", "sequence (Q14957 20-1233, species assumed, other chains not shown)": "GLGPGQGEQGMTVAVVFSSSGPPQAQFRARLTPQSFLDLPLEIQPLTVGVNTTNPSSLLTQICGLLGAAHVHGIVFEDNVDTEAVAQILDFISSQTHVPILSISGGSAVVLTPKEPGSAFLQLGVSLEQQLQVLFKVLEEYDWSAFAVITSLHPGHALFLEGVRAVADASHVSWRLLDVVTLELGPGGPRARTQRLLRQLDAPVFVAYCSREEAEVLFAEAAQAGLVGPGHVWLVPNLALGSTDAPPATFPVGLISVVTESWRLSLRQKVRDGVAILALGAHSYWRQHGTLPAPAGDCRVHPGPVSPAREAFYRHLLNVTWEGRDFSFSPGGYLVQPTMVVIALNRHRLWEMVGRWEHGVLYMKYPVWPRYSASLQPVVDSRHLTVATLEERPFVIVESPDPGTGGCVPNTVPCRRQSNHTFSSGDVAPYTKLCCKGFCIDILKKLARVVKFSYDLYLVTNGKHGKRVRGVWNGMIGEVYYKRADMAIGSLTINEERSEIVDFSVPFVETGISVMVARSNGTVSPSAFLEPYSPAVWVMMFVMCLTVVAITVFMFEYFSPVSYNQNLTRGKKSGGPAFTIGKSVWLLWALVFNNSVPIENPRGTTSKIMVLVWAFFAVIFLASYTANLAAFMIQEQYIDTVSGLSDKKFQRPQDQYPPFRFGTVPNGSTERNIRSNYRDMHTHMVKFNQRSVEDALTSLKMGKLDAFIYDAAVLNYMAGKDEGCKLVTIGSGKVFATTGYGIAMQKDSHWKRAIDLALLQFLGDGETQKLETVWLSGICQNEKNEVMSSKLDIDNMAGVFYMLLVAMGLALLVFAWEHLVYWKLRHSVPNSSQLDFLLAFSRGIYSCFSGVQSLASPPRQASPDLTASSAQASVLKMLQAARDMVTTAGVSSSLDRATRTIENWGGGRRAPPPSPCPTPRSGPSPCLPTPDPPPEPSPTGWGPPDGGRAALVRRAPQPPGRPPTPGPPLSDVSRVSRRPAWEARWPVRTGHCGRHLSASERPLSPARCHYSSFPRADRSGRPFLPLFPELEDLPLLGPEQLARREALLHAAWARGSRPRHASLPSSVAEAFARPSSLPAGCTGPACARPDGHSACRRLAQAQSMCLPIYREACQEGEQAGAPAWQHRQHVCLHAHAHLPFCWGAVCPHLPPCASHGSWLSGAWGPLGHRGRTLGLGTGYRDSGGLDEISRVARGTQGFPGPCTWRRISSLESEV", "test": "Potentiation of [3H]MK-801 binding, wild-type NMDAR2C", "design": "species or system rat", "protocol": "as §1, §2"}, "NR2B": {"target": "NR2B (Homo sapiens, UniProt Q13224)", "sequence (Q13224 27-1484, species assumed, other chains not shown)": "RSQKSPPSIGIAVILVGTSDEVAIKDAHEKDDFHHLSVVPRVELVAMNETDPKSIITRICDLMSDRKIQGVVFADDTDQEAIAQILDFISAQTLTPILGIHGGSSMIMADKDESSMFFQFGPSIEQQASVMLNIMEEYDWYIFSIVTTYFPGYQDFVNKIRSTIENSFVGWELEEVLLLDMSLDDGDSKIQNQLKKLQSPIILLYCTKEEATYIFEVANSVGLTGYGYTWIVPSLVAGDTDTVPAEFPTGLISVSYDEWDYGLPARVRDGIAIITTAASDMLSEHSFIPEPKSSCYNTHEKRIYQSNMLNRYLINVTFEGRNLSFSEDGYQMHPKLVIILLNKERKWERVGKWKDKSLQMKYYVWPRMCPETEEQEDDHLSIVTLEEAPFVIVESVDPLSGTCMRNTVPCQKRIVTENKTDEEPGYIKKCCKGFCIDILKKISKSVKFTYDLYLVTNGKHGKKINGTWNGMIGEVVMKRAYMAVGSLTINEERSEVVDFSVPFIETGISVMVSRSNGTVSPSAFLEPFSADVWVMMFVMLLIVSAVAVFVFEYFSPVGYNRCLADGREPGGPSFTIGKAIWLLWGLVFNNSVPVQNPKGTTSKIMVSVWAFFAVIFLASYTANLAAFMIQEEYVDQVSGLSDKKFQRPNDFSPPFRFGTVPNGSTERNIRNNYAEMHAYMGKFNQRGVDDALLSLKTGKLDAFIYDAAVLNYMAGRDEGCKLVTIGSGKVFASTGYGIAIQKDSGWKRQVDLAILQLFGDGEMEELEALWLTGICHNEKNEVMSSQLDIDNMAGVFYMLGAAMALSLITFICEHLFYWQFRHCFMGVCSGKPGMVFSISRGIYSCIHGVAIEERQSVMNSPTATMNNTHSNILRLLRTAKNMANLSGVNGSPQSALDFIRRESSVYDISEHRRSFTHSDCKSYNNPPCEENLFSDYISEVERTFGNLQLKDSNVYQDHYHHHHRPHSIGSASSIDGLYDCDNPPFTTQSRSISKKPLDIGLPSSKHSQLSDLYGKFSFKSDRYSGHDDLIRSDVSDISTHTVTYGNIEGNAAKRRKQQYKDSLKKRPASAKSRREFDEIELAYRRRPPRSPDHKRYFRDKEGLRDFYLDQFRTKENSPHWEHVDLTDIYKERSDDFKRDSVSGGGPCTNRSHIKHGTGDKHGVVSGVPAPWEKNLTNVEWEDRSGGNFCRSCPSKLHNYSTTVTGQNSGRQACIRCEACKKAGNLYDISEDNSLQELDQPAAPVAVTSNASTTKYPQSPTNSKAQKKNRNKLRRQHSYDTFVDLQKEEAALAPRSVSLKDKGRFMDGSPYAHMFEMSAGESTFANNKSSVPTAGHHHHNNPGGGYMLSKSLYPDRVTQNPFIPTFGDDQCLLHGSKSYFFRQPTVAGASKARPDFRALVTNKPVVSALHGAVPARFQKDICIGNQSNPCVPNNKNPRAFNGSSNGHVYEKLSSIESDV", "test": "Potentiation of [3H]MK-801 binding, wild-type NMDAR2B", "design": "species or system rat", "protocol": "as §1, §2"}, "Plasma stability, human": {"test": "Plasma stability, human", "assay_type": "in vitro ADME", "protocol": "as §3"}, "[3]": {"settings": "potentiation of [3H]MK-801 binding"}}, "note": "Like-named read-outs stand apart in the source and are kept apart here."}
{"molecule": "C[C@@H](O)[C@@H](C(N)=O)N1C[C@@]2(CCCN2S(C)(=O)=O)C1=O", "note": "[Compound BB, (2S,3R)-3-hydroxy-2-((S)-5-(methylsulfonyl)-1-oxo-2,5-diazaspiro[3,4]octan-2-yl)butanamide]", "values": [{"measurement": "NR2D A (%) (activity)", "setting": "NR2D; [3]", "value": 57.41, "unit": "%"}, {"measurement": "EC50", "setting": "NR2D; potentiation of [3H]MK-801 binding, 0 = no activity, read-out: NR2D P (M) (potency) (converted)", "value": "5.62e-11", "unit": "M"}, {"measurement": "NMDAR2D BINDING PROFILE % 1 mM Glycine", "setting": "NR2D; relative to 1 mM glycine", "value": 57.41, "unit": "%"}, {"measurement": "binding to NR2D (in words)", "setting": "NR2D; statement in description", "value": "binds"}, {"measurement": "NMDAR2D BINDING PROFILE Conclusion", "setting": "NR2D; wild-type NMDAR2D", "value": "WT2D agonist"}, {"measurement": "EC50", "setting": "NR2D; wild-type NMDAR2D, read-out: NMDAR2D BINDING PROFILE −logEC50 (converted)", "value": "5.62e-11", "unit": "M"}, {"measurement": "fraction unbound", "setting": "[1]", "value": 0.65}, {"measurement": "positive emotional learning as measured by rat USVs", "setting": "rat", "value": "increases positive emotional learning"}, {"measurement": "Kp", "setting": "[2]; CSF, read-out: CSF/plasma ratio", "value": 0.48}, {"measurement": "Kp", "setting": "[2]; brain, read-out: Brain/plasma ratio", "value": 0.12}, {"measurement": "bioavailability", "setting": "[2]; plasma, PO administration (10 mg/kg PO, 2 mg/kg IV), male Sprague Dawley rats, read-out: Bioavailablity (% F)", "value": 82, "unit": "%"}, {"measurement": "Plasma Stability (% remaining at 60 min) Rat", "setting": "Plasma stability, rat", "value": 86, "unit": "%"}, {"measurement": "NR2C A (%) (activity)", "setting": "NR2C; [3]", "value": 0, "unit": "%"}, {"measurement": "NMDAR2C BINDING PROFILE % 1 mM Glycine", "setting": "NR2C; relative to 1 mM glycine", "value": 0, "unit": "%"}, {"measurement": "binding to NR2C (in words)", "setting": "NR2C; statement in description", "value": "substantially no binding"}, {"measurement": "NMDAR2C BINDING PROFILE Conclusion", "setting": "NR2C; wild-type NMDAR2C", "value": "WT2C no"}, {"measurement": "NR2B A (%) (activity)", "setting": "NR2B; [3]", "value": 76.3, "unit": "%"}, {"measurement": "NMDAR2B BINDING PROFILE % 1 mM Glycine", "setting": "NR2B; relative to 1 mM glycine", "value": 76.3, "unit": "%"}, {"measurement": "binding to NR2B (in words)", "setting": "NR2B; statement in description", "value": "binds"}, {"measurement": "NMDAR2B BINDING PROFILE Conclusion", "setting": "NR2B; wild-type NMDAR2B", "value": "WT2B agonist"}, {"measurement": "Plasma Stability (% remaining at 60 min) Human", "setting": "Plasma stability, human", "value": 81, "unit": "%"}]}
